Reference: ChEMBL document CHEMBL1811857, “Targeting HIV entry through interaction with envelope glycoprotein 120 (gp120): synthesis and antiviral evaluation of 1,3,5-triazines with aromatic amino acids” (J Med Chem, 2011)
The source made the active and inactive calls. The calls are words filed in the database; no cut-off is given here.

Experiments:
[1] = tested on: Human immunodeficiency virus 2; assay: Antiviral activity against HIV2 ROD infected in human CEM cells assessed as inhibition of virus-induced cytopathicity after 4 days; format: functional, organism-based; details: Human immunodeficiency virus 2, ISOLATE ROD, CCRF-CEM, 96 h
CCRF-CEM = assay: Cytotoxicity against human CEM cells after 4 days by Coulter counter analysis; format: cell-based; details: 96 h, read-out: EC50 (the source's name)
[2] = tested on: Human immunodeficiency virus 1; assay: Antiviral activity against HIV1 3B infected in human CEM cells assessed as inhibition of virus-induced cytopathicity after 4 days; format: functional, organism-based; details: Human immunodeficiency virus 1, 3B, CCRF-CEM, 96 h
[3] = tested on: Human immunodeficiency virus 1; assay: Binding affinity to HIV1 3B recombinant gp-120 at 12.5 uM after 5 mins by surface plasmon resonance analysis
[4] = tested on: Human immunodeficiency virus 1; assay: Binding affinity to HIV1 3B recombinant gp-120 at 50 uM after 5 mins by surface plasmon resonance analysis
[5] = Binding affinity to HIV1 ADA recombinant gp-120 after 5 mins using low density (792 RU) sensor chip by surface plasmon resonance analysis; design: species or system Human immunodeficiency virus 1
PBMC [6] = assay: Mitogenic activity in human PBMC after 3 days; format: functional, cell-based
PBMC [7] = assay: Induction of HLA-DR expression in human PBMC after 3 days by FACS analysis; format: functional, cell-based
PBMC [8] = assay: Induction of CD69 expression in human PBMC after 3 days by FACS analysis; format: functional, cell-based
[9] = Binding affinity to HIV1 3B recombinant gp-120 after 5 mins using high density (10400 RU) sensor chip by surface plasmon resonance analysis; design: species or system Human immunodeficiency virus 1
[10] = tested on: Human immunodeficiency virus 1; assay: Binding affinity to HIV1 3B recombinant gp-120 at 12.5 uM after 5 mins by surface plasmon resonance analysis in presence of […]
[11] = tested on: Human immunodeficiency virus 1; assay: Antiviral activity against HIV1 3a-L infected in human PBMC cells assessed as inhibition of virus-induced cytopathicity after 4 days; format: functional, organism-based; details: Human immunodeficiency virus 1, 3a-L, 96 h
PBMC [12] = assay: Cytotoxicity against human PBMC at 50 uM after 3 days; format: cell-based; details: 72 h
[13] = Binding affinity to HIV1 3B recombinant gp-120 after 5 mins using low density (792 RU) sensor chip by surface plasmon resonance analysis; design: species or system Human immunodeficiency virus 1
PBMC [14] = assay: Induction of CD25 expression in human PBMC after 3 days by FACS analysis; format: functional, cell-based
[15] = Solubility of the compound at >10 uM; format: physicochemical

Row | SMILES | EC50 [1] [µM] | CC50 (CCRF-CEM) [µM] | EC50 [2] [µM] | also measured
1 | CN[C@@H]1[C@H](O[C@@H]2OC[C@@H](O)[C@H](O)[C@H]2O)[C@@H](O)[C@H](O[C@H]2c3cc(C)c(C(=O)N[C@H](C)C(=O)O)c(O)c3-c3c(cc4c(c3O)C(=O)c3cc(OC)cc(O)c3C4=O)[C@@H]2O)O[C@@H]1C [PRADIMICIN A] | 5.9 | > 50 | 5.2 | 
2 | CCc1c(CNc2nc(N[C@@H](CC(=O)O)C(=O)O)nc(N[C@@H](Cc3c[nH]c4ccccc34)C(=O)O)n2)c(CC)c(CNc2nc(N[C@@H](CC(=O)O)C(=O)O)nc(N[C@@H](Cc3c[nH]c4ccccc34)C(=O)O)n2)c(CC)c1CNc1nc(N[C@@H](CC(=O)O)C(=O)O)nc(N[C@@H](Cc2c[nH]c3ccccc23)C(=O)O)n1 | 33 | > 250 | 18 | Activity [3]: Active
3 | O=C(O)[C@H](Cc1c[nH]c2ccccc12)Nc1nc(NCCOCCOCCNc2nc(N[C@@H](Cc3c[nH]c4ccccc34)C(=O)O)nc(N[C@H](Cc3c[nH]c4ccccc34)C(=O)O)n2)nc(N[C@@H](Cc2c[nH]c3ccccc23)C(=O)O)n1 | 120 | > 250 | 112 | 
4 | O=C(O)[C@H](Cc1ccc(O)cc1)Nc1nc(NCc2cccc(CNc3nc(N[C@@H](Cc4ccc(O)cc4)C(=O)O)nc(N[C@@H](Cc4ccc(O)cc4)C(=O)O)n3)c2)nc(N[C@@H](Cc2ccc(O)cc2)C(=O)O)n1 | 80 | > 250 | 148 | Activity [4]: Active
5 | O=C(O)[C@H](Cc1ccc(O)cc1)Nc1nc(N[C@@H](Cc2ccc(O)cc2)C(=O)O)nc(N2CCN(c3nc(N[C@@H](Cc4ccc(O)cc4)C(=O)O)nc(N[C@@H](Cc4ccc(O)cc4)C(=O)O)n3)CC2)n1 | ≥ 250 | > 250 | ≥ 250 | 
6 | CN[C@@H]1[C@H](O[C@@H]2O[C@H](CO)[C@@H](O)[C@H](OS(=O)(=O)O)[C@H]2O)[C@@H](O)[C@H](O[C@H]2c3cc(C)c(C(=O)N[C@H](C)C(=O)O)c(O)c3-c3c(cc4c(c3O)C(=O)c3cc(OC)cc(O)c3C4=O)[C@@H]2O)O[C@@H]1C [PRADIMICIN S] |  | > 250 |  | 
7 | CCc1c(CNc2nc(N[C@@H](Cc3c[nH]c4ccccc34)C(=O)O)nc(N[C@H](Cc3c[nH]c4ccccc34)C(=O)O)n2)c(CC)c(CNc2nc(N[C@@H](Cc3c[nH]c4ccccc34)C(=O)O)nc(N[C@H](Cc3c[nH]c4ccccc34)C(=O)O)n2)c(CC)c1CNc1nc(N[C@@H](Cc2c[nH]c3ccccc23)C(=O)O)nc(N[C@H](Cc2c[nH]c3ccccc23)C(=O)O)n1 | 22 | > 250 | 19 | Activity [3]: Active
8 | O=C(O)C[C@H](Nc1nc(NCCN(CCNc2nc(N[C@@H](CC(=O)O)C(=O)O)nc(N[C@@H](Cc3c[nH]c4ccccc34)C(=O)O)n2)CCNc2nc(N[C@@H](Cc3c[nH]c4ccccc34)C(=O)O)nc(N[C@H](CC(=O)O)C(=O)O)n2)nc(N[C@@H](Cc2c[nH]c3ccccc23)C(=O)O)n1)C(=O)O | > 250 | > 250 | 216 | 
9 | O=C(O)[C@H](Cc1ccccc1)Nc1nc(NCCN(CCNc2nc(N[C@@H](Cc3ccccc3)C(=O)O)nc(N[C@H](Cc3ccccc3)C(=O)O)n2)CCNc2nc(N[C@@H](Cc3ccccc3)C(=O)O)nc(N[C@H](Cc3ccccc3)C(=O)O)n2)nc(N[C@H](Cc2ccccc2)C(=O)O)n1 | 216 | > 250 | 65 | 
10 | O=C(O)[C@H](Cc1ccc(O)cc1)Nc1nc(NCc2ccccc2)nc(N[C@@H](Cc2ccc(O)cc2)C(=O)O)n1 |  |  |  | Activity [4]: inactive
11 | O=C(O)[C@H](Cc1ccc(O)cc1)Nc1nc(NCCN(CCNc2nc(N[C@@H](Cc3ccc(O)cc3)C(=O)O)nc(N[C@H](Cc3ccc(O)cc3)C(=O)O)n2)CCNc2nc(N[C@@H](Cc3ccc(O)cc3)C(=O)O)nc(N[C@H](Cc3ccc(O)cc3)C(=O)O)n2)nc(N[C@H](Cc2ccc(O)cc2)C(=O)O)n1 | ≥ 250 | > 250 | ≥ 250 | 
12 | O=C(O)[C@H](Cc1c[nH]c2ccccc12)Nc1nc(NCc2ccccc2)nc(N[C@@H](Cc2c[nH]c3ccccc23)C(=O)O)n1 |  |  |  | Activity [4]: inactive
13 | CCc1c(CNc2nc(N[C@@H](Cc3c[nH]c4ccccc34)C(=O)O)nc(N[C@@H](Cc3c[nH]c4ccccc34)C(=O)O)n2)c(CC)c(CNc2nc(N[C@@H](Cc3c[nH]c4ccccc34)C(=O)O)nc(N[C@@H](Cc3c[nH]c4ccccc34)C(=O)O)n2)c(CC)c1CNc1nc(N[C@@H](Cc2c[nH]c3ccccc23)C(=O)O)nc(N[C@@H](Cc2c[nH]c3ccccc23)C(=O)O)n1 | 22 | > 250 | 16 | Kd [5]: 2.51 µM; Activity [3]: Active; Activity (PBMC [6]): inactive; Activity (PBMC [7]): inactive; Activity (PBMC [8]): inactive; Kd [9]: 2.61 µM; Activity [4]: Active; Activity [10]: Active; EC50 [11]: 20 µM; Activity (PBMC [12]): Non-toxic; Kd [13]: 1.61 µM; Activity (PBMC [14]): inactive
14 | O=C(O)[C@H](Cc1ccccc1)Nc1nc(NCCOCCOCCNc2nc(N[C@@H](Cc3ccccc3)C(=O)O)nc(N[C@H](Cc3ccccc3)C(=O)O)n2)nc(N[C@@H](Cc2ccccc2)C(=O)O)n1 | ≥ 250 | > 250 | ≥ 250 | 
15 | O=C(O)[C@H](Cc1ccc(O)cc1)Nc1nc(NCCOCCOCCNc2nc(N[C@@H](Cc3ccc(O)cc3)C(=O)O)nc(N[C@H](Cc3ccc(O)cc3)C(=O)O)n2)nc(N[C@@H](Cc2ccc(O)cc2)C(=O)O)n1 | > 250 | > 250 | > 250 | 
16 | CCc1c(CNc2nc(N[C@@H](Cc3ccc(O)cc3)C(=O)O)nc(N[C@@H](Cc3ccc(O)cc3)C(=O)O)n2)c(CC)c(CNc2nc(N[C@@H](Cc3ccc(O)cc3)C(=O)O)nc(N[C@@H](Cc3ccc(O)cc3)C(=O)O)n2)c(CC)c1CNc1nc(N[C@@H](Cc2ccc(O)cc2)C(=O)O)nc(N[C@@H](Cc2ccc(O)cc2)C(=O)O)n1 | 22 | > 250 | 22 | Kd [5]: 1.71 µM; Activity [3]: Active; Activity (PBMC [6]): inactive; Activity (PBMC [7]): inactive; Activity (PBMC [8]): inactive; Kd [9]: 2.61 µM; Activity [4]: Active; Activity [10]: Active; EC50 [11]: 20 µM; Activity (PBMC [12]): Non-toxic; Kd [13]: 1.97 µM; Activity (PBMC [14]): inactive
17 | O=C(O)[C@H](Cc1ccccc1)Nc1nc(N[C@@H](Cc2ccccc2)C(=O)O)nc(N2CCN(c3nc(N[C@@H](Cc4ccccc4)C(=O)O)nc(N[C@@H](Cc4ccccc4)C(=O)O)n3)CC2)n1 | 121 | > 250 | 106 | 
18 | CCc1c(CNc2nc(N[C@@H](Cc3ccc(O)cc3)C(=O)O)nc(N[C@@H](Cc3c[nH]c4ccccc34)C(=O)O)n2)c(CC)c(CNc2nc(N[C@@H](Cc3ccc(O)cc3)C(=O)O)nc(N[C@@H](Cc3c[nH]c4ccccc34)C(=O)O)n2)c(CC)c1CNc1nc(N[C@@H](Cc2ccc(O)cc2)C(=O)O)nc(N[C@@H](Cc2c[nH]c3ccccc23)C(=O)O)n1 | 24 | > 250 | 26 | Activity [3]: Active
19 | O=C(O)[C@H](Cc1ccccc1)Nc1nc(NCc2cccc(CNc3nc(N[C@@H](Cc4ccccc4)C(=O)O)nc(N[C@@H](Cc4ccccc4)C(=O)O)n3)c2)nc(N[C@@H](Cc2ccccc2)C(=O)O)n1 | > 10 | > 10 | > 10 | solubility [15]: Insoluble
20 | CCc1c(CNc2nc(NCCc3c[nH]c4ccccc34)nc(N[C@@H](Cc3c[nH]c4ccccc34)C(=O)O)n2)c(CC)c(CNc2nc(NCCc3c[nH]c4ccccc34)nc(N[C@@H](Cc3c[nH]c4ccccc34)C(=O)O)n2)c(CC)c1CNc1nc(NCCc2c[nH]c3ccccc23)nc(N[C@@H](Cc2c[nH]c3ccccc23)C(=O)O)n1 | > 10 | > 10 | > 10 | solubility [15]: Insoluble; Activity [3]: Active
21 | O=C(O)[C@H](Cc1c[nH]c2ccccc12)Nc1nc(NCCN(CCNc2nc(N[C@@H](Cc3c[nH]c4ccccc34)C(=O)O)nc(N[C@H](Cc3c[nH]c4ccccc34)C(=O)O)n2)CCNc2nc(N[C@@H](Cc3c[nH]c4ccccc34)C(=O)O)nc(N[C@H](Cc3c[nH]c4ccccc34)C(=O)O)n2)nc(N[C@H](Cc2c[nH]c3ccccc23)C(=O)O)n1 | 65 | > 250 | 20 | 
